Assay results published in ChEMBL document CHEMBL3751776, “Expanding the structural diversity of diarylureas as multi-target tyrosine kinase inhibitors” (Bioorg Med Chem, 2016).

What was measured:
[1] = target: Vascular endothelial growth factor receptor 2 (Homo sapiens, UniProt P35968); test: Inhibition of KDR (unknown origin) incubated for 1 hr assessed as luminescence changes using ATP by ADP-Glo Kinase assay
[2] = target: Epidermal growth factor receptor (Homo sapiens, UniProt P00533); test: Inhibition of EGFR (unknown origin) incubated for 1 hr assessed as luminescence changes using ATP by ADP-Glo Kinase assay
Epidermal growth factor receptor, sequence (P00533 whole entry): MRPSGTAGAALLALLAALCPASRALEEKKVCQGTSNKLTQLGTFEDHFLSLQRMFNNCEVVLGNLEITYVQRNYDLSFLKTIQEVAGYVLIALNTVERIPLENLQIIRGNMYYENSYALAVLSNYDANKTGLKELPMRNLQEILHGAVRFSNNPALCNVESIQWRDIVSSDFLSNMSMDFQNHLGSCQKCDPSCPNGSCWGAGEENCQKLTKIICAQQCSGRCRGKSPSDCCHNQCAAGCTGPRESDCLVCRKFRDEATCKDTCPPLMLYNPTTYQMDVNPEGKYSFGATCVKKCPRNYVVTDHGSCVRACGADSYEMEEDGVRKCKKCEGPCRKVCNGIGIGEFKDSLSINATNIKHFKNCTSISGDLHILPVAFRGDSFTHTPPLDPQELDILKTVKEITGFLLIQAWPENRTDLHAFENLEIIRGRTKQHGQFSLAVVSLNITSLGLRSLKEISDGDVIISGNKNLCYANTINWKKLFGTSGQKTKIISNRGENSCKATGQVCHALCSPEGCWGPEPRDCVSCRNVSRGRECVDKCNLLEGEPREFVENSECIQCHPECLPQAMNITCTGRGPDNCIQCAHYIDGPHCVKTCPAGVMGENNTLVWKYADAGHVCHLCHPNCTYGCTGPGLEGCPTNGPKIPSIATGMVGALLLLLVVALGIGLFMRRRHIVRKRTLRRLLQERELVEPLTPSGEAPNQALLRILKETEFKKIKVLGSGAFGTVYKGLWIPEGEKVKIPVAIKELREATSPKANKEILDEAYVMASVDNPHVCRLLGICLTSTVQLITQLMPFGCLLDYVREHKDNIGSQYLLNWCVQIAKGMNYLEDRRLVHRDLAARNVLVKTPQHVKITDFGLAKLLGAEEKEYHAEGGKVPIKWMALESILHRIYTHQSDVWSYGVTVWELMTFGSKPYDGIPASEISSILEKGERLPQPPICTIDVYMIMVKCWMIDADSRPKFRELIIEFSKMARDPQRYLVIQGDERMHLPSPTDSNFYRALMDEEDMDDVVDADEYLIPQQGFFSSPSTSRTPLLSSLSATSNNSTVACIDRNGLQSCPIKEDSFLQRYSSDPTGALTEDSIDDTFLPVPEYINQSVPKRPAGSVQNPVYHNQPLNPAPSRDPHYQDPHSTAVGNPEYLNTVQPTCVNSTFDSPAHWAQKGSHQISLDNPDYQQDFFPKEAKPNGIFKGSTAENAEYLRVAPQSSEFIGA

[3] = Antiproliferative activity against human SMMC7721 cells assessed as growth inhibition after 48 hrs by MTT assay; assay type: functional, cell-based; settings: SMMC-7721, 48 h
[4] = target: Fibroblast growth factor receptor 1 (Homo sapiens, UniProt P11362); test: Inhibition of FGFR1 (unknown origin) incubated for 1 hr assessed as luminescence changes using ATP by ADP-Glo Kinase assay
Fibroblast growth factor receptor 1, sequence (P11362 whole entry): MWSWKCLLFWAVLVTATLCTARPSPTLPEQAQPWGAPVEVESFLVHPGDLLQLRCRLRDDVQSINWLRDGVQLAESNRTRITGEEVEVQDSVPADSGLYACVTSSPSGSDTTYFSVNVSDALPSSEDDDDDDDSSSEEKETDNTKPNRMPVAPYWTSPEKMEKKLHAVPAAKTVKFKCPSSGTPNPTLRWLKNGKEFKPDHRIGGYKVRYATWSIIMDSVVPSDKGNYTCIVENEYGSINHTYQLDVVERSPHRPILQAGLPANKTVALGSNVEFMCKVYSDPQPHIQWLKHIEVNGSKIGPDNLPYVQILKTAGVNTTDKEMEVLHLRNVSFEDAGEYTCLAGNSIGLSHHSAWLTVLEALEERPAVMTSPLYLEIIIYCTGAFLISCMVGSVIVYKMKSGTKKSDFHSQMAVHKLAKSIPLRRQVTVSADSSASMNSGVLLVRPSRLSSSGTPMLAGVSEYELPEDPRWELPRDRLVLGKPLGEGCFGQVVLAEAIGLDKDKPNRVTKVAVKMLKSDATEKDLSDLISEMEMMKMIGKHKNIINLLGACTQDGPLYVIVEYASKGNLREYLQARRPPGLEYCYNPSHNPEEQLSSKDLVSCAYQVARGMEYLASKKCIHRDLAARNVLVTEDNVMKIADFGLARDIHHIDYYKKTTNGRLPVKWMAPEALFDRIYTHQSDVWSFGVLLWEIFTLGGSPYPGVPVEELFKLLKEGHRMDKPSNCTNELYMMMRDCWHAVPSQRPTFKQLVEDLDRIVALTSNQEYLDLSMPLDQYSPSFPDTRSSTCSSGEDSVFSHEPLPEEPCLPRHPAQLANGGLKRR

A549 = test: Antiproliferative activity against human A549 cells assessed as growth inhibition after 48 hrs by MTT assay; assay type: functional, cell-based; settings: A549, 48 h

Vascular endothelial growth factor receptor 2, sequence (P35968 whole entry): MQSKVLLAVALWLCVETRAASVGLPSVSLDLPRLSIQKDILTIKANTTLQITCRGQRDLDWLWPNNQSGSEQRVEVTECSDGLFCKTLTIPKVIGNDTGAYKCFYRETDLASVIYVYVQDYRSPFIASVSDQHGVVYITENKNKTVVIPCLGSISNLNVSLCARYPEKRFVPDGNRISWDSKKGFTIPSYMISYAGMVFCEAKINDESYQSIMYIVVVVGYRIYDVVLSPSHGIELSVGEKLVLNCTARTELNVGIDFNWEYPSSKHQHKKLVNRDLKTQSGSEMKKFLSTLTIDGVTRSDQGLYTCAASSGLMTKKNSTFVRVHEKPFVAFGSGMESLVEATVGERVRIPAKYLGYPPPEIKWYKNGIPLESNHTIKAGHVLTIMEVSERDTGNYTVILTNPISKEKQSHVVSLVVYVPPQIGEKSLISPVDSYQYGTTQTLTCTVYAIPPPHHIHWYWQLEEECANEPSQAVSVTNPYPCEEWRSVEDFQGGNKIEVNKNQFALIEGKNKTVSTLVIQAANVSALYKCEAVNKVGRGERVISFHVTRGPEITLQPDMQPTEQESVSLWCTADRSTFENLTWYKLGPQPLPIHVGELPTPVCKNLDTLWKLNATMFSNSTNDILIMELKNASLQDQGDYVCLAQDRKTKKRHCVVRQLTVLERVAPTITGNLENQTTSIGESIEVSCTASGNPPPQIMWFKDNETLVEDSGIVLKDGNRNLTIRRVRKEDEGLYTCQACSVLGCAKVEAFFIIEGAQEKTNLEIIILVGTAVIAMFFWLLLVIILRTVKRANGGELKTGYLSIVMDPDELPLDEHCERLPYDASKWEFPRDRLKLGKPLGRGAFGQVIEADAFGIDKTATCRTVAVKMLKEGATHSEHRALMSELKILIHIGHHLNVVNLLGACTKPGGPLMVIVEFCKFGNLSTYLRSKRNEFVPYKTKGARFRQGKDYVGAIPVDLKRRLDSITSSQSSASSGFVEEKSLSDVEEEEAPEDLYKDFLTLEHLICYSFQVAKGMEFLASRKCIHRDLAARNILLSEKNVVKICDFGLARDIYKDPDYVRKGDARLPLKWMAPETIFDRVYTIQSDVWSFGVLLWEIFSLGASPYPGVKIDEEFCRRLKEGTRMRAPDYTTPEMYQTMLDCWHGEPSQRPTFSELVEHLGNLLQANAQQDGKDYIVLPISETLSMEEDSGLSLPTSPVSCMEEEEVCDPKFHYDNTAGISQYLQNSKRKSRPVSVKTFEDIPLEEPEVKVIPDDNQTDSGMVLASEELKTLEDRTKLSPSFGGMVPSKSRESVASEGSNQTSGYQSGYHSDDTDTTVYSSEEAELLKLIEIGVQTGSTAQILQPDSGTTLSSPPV

Row | Compound | IC50 [1] | IC50 [2] | IC50 [4] | IC50 (A549) | IC50 [3]
1 | COc1ccc(-c2cc(NC(=O)Nc3nccs3)cc(C(F)(F)F)c2)cn1 | > 500 nM | 477 nM | > 500 nM | – | 36200 nM
2 | O=C(Nc1ccncc1)Nc1cc(-c2cncnc2)cc(C(F)(F)F)c1 | 21.6 nM | 14.8 nM | 28.2 nM | 2420 nM | 3730 nM
3 | O=C(Nc1nccs1)Nc1cc(-c2cncnc2)ccc1OC(F)(F)F | 68.6 nM | 71.7 nM | 154 nM | 17600 nM | 9350 nM
4 | O=C(Nc1ccncc1)Nc1cc(-c2cncnc2)ccc1OC(F)(F)F | 22.2 nM | 18 nM | 32.6 nM | 3750 nM | 3990 nM
5 | O=C(Nc1ccncc1)Nc1cc(-c2cccnc2)cc(C(F)(F)F)c1 | 93 nM | 189 nM | 138 nM | > 300000 nM | –
6 | Cn1cnc(-c2ccc(OC(F)(F)F)c(NC(=O)Nc3ccncc3)c2)c1 | 355 nM | 94.8 nM | 371 nM | 79300 nM | > 300000 nM
7 | Cn1cnc(-c2cc(NC(=O)Nc3nccs3)cc(C(F)(F)F)c2)c1 | 285 nM | 311 nM | > 500 nM | 163000 nM | –
8 | O=C(Nc1cc(-c2cccnc2)cc(C(F)(F)F)c1)Nc1nccs1 | 57.4 nM | 78.2 nM | 99.2 nM | 92100 nM | 68200 nM
9 | COc1ccc(-c2ccc(OC(F)(F)F)c(NC(=O)Nc3nccs3)c2)cn1 | 390 nM | 495 nM | > 500 nM | 35000 nM | 44100 nM
10 | COc1ccc(-c2ccc(OC(F)(F)F)c(NC(=O)Nc3ccncc3)c2)cn1 | > 500 nM | 103 nM | 99.8 nM | > 300000 nM | –
11 | O=C(Nc1nccs1)Nc1cc(-c2cccnc2)ccc1OC(F)(F)F | 107 nM | 121 nM | 96.1 nM | – | 12500 nM
12 | O=C(Nc1ccncc1)Nc1cc(-c2cccnc2)ccc1OC(F)(F)F | 128 nM | 97.2 nM | 104 nM | 39800 nM | 42800 nM
13 | COc1ccc(-c2cc(NC(=O)Nc3ccncc3)cc(C(F)(F)F)c2)cn1 | 364 nM | > 500 nM | > 500 nM | 276000 nM | > 300000 nM
14 | Cn1cnc(-c2cc(NC(=O)Nc3ccncc3)cc(C(F)(F)F)c2)c1 | 223 nM | 166 nM | 261 nM | 39400 nM | 235000 nM
15 | O=C(Nc1cc(-c2cncnc2)cc(C(F)(F)F)c1)Nc1nccs1 | 86.7 nM | 71.8 nM | > 500 nM | 18300 nM | 29700 nM
16 | CNC(=O)c1cc(Oc2ccc(NC(=O)Nc3ccc(Cl)c(C(F)(F)F)c3)cc2)ccn1 [SORAFENIB] | – | – | – | 2020 nM | 1580 nM

More lines, main results first:

Row | IC50 [1] | IC50 [2] | IC50 [4] | IC50 (A549) | Compound | IC50 [3]
17 | > 500 nM | 48.8 nM | 69.3 nM | 13500 nM | COc1cc(NC(=O)Nc2ccccn2)cc(-c2cccnc2)c1OC | 22400 nM
18 | 420 nM | 362 nM | > 500 nM | – | COc1cc(NC(=O)Nc2nccs2)cc(-c2cn(C)cn2)c1OC | –
19 | > 500 nM | > 500 nM | > 500 nM | 177000 nM | COc1ccc(-c2ccc(OC(F)(F)F)c(NC(=O)Nc3ccccn3)c2)cn1 | 90400 nM
20 | 86.7 nM | – | 130 nM | 19000 nM | O=C(Nc1ccccn1)Nc1cc(-c2cccnc2)ccc1OC(F)(F)F | 35600 nM
21 | > 500 nM | 455 nM | > 500 nM | – | COc1ccc(-c2cc(NC(=O)Nc3ccncc3)cc(OC)c2OC)cn1 | –
22 | 33.2 nM | 24.8 nM | 56.5 nM | 14100 nM | COc1cc(NC(=O)Nc2ccccn2)cc(-c2c[nH]cn2)c1OC | 21200 nM
23 | 213 nM | 131 nM | 272 nM | – | COc1cc(NC(=O)Nc2ccncc2)cc(-c2cccnc2)c1OC | 73600 nM
24 | 52.2 nM | 26.6 nM | 81.3 nM | 15200 nM | O=C(Nc1ccccn1)Nc1cc(-c2cncnc2)ccc1OC(F)(F)F | 21600 nM
25 | 291 nM | 317 nM | 334 nM | 106000 nM | COc1cc(NC(=O)Nc2nccs2)cc(-c2cccnc2)c1OC | –
26 | 492 nM | 290 nM | > 500 nM | 17300 nM | COc1cc(NC(=O)Nc2ccncc2)cc(-c2cncnc2)c1OC | 12900 nM
27 | 79.4 nM | 66.6 nM | > 500 nM | 24700 nM | COc1ccc(-c2cc(NC(=O)Nc3ccccn3)cc(OC)c2OC)cn1 | 32900 nM
